Assay results taken from PMC8026769 (Molecular microbiology, 2020).

How the values were obtained:
[1] = target: T1, LpThi5 (LpThi5-His6; Lpg1565) (Legionella pneumophila, UniProt Q5ZV75)
[2] = target: T1, LpThi5 (LpThi5-His6; Lpg1565); remark: listed apart in the source

T1 sequence (Q5ZV75 whole entry, looked up): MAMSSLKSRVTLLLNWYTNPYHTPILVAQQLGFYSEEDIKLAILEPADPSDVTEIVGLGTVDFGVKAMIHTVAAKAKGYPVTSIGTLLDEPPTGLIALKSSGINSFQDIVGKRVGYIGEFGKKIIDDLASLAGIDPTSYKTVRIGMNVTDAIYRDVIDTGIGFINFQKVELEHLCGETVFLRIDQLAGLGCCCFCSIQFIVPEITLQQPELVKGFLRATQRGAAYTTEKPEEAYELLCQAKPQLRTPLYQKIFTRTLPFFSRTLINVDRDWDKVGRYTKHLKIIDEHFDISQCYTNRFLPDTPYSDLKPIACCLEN

Cc1ncc(CO)c(N)n1 [HMP, 2-methyl-4-amino-5-hydroxymethylpyrimidine]
bioassay, HPLC and MALDI-TOF MS of released product [1]: MALDI-TOF MS identified the active molecule as HMP

Cc1ncc(COP(=O)(O)O)c(C=O)c1O [PLP, pyridoxal-5’-phosphate]
PLP occupancy [2]: 63 ± 2%
